Measured values: article PMC5218480 (PLoS ONE, 2017)

Test system: MV-4-11 cells
Experiment: Gene expression microarray analysis (Affymetrix PrimeView) and GSEA
Format: cell-based, human
Parameters: RFU PODN (11730768_x_at) / Fold change /veh PODN (11730768_x_at) / RFU LINC00158 (11744669_a_at) / Fold change /veh LINC00158 (11744669_a_at) / RFU DUSP10 (11751237_a_at) / Fold change /veh DUSP10 (11751237_a_at) / RFU ID3 (11757404_x_at) / Fold change /veh ID3 (11757404_x_at) / RFU PLEKHG5 (11737974_s_at) / Fold change /veh PLEKHG5 (11737974_s_at) / RFU LRRC4B (11730491_at) / Fold change /veh LRRC4B (11730491_at) / RFU GIMAP4 (11747438_a_at) / Fold change /veh GIMAP4 (11747438_a_at) / RFU KRT8 (11758183_x_at) / Fold change /veh KRT8 (11758183_x_at) / RFU CNN1 (11734310_a_at) / Fold change /veh CNN1 (11734310_a_at) / RFU VPS37D (11726825_at) / Fold change /veh VPS37D (11726825_at) / RFU C10orf10 (11716522_x_at) / Fold change /veh C10orf10 (11716522_x_at) / RFU KIR2DL2 /// KIR2DL4 /// KIR2DL5A /// KIR2DL5B /// KIR2DS1 /// KIR2DS2 /// KIR2DS3 /// KIR2DS4 /// KIR3DL3 /// KIR3DL3 /// KIR3DS1 (11738374_at) / Fold change /veh KIR2DL2 /// KIR2DL4 /// KIR2DL5A /// KIR2DL5B /// KIR2DS1 /// KIR2DS2 /// KIR2DS3 /// KIR2DS4 /// KIR3DL3 /// KIR3DL3 /// KIR3DS1 (11738374_at) / RFU C1QL1 (11718748_at) / Fold change /veh C1QL1 (11718748_at) / RFU TMPRSS4 (11747572_a_at) / Fold change /veh TMPRSS4 (11747572_a_at) / RFU HAMP (11756126_x_at) / Fold change /veh HAMP (11756126_x_at) / RFU RNFT2 (11725882_a_at) / Fold change /veh RNFT2 (11725882_a_at) / RFU NR4A2 (11747474_a_at) / Fold change /veh NR4A2 (11747474_a_at) / RFU ABCC12 (11746883_a_at) / Fold change /veh ABCC12 (11746883_a_at) / RFU TMEM136 (11760407_x_at) / Fold change /veh TMEM136 (11760407_x_at) / RFU CLDN22 /// WWC2 (11732394_at) / Fold change /veh CLDN22 /// WWC2 (11732394_at) / RFU HLA-DPB1 (11760878_x_at) / Fold change /veh HLA-DPB1 (11760878_x_at) / RFU SPINT1 (11716480_a_at) / Fold change /veh SPINT1 (11716480_a_at) / RFU GAP43 (11754022_s_at) / Fold change /veh GAP43 (11754022_s_at) / RFU A4GNT (11735810_at) / Fold change /veh A4GNT (11735810_at) / RFU PRB3 (11715151_x_at) / Fold change /veh PRB3 (11715151_x_at) / RFU TUBB4B (11761932_at) / Fold change /veh TUBB4B (11761932_at) / RFU CAPN14 (11732068_a_at) / Fold change /veh CAPN14 (11732068_a_at) / RFU TMCC2 (11721928_a_at) / Fold change /veh TMCC2 (11721928_a_at) / RFU IRGQ (11745062_a_at) / Fold change /veh IRGQ (11745062_a_at) / RFU FAM174B (11720279_a_at) / Fold change /veh FAM174B (11720279_a_at) / RFU TMPRSS4 (11748680_a_at) / Fold change /veh TMPRSS4 (11748680_a_at) / RFU FAM212B (11763350_a_at) / Fold change /veh FAM212B (11763350_a_at) / RFU PLEKHG5 (11743358_a_at) / Fold change /veh PLEKHG5 (11743358_a_at) / RFU ZSCAN30 (11745921_a_at) / Fold change /veh ZSCAN30 (11745921_a_at) / RFU CMKLR1 (11741424_a_at) / Fold change /veh CMKLR1 (11741424_a_at) / RFU LOC101060620 /// MAPK8IP1 (11723275_at) / Fold change /veh LOC101060620 /// MAPK8IP1 (11723275_at) / RFU SPTSSB (11747773_x_at) / Fold change /veh SPTSSB (11747773_x_at) / RFU PRSS12 (11739890_at) / Fold change /veh PRSS12 (11739890_at) / RFU BIN1 (11741810_x_at) / Fold change /veh BIN1 (11741810_x_at) / RFU WNT11 (11732464_a_at) / Fold change /veh WNT11 (11732464_a_at) / RFU C10orf10 (11716521_a_at) / Fold change /veh C10orf10 (11716521_a_at) / RFU C5orf56 (11738089_at) / Fold change /veh C5orf56 (11738089_at) / RFU CYB561 (11721691_x_at) / Fold change /veh CYB561 (11721691_x_at) / RFU ANKRD19P (11752326_a_at) / Fold change /veh ANKRD19P (11752326_a_at) / RFU OR2T12 /// OR2T33 /// OR2T8 (11738714_s_at) / Fold change /veh OR2T12 /// OR2T33 /// OR2T8 (11738714_s_at) / RFU VCAN (11748164_a_at) / Fold change /veh VCAN (11748164_a_at) / RFU JSRP1 (11732532_at) / Fold change /veh JSRP1 (11732532_at) / RFU KRTAP10-11 (11738290_x_at) / Fold change /veh KRTAP10-11 (11738290_x_at) / RFU MYO3A (11730013_a_at) / Fold change /veh MYO3A (11730013_a_at) / RFU EBF3 (11725865_a_at) / Fold change /veh EBF3 (11725865_a_at) / RFU CAMK2N1 (11719241_x_at) / Fold change /veh CAMK2N1 (11719241_x_at) / RFU C5orf56 (11738088_a_at) / Fold change /veh C5orf56 (11738088_a_at) / RFU OLFML3 (11715873_a_at) / Fold change /veh OLFML3 (11715873_a_at) / RFU LOC100653217 /// NTM (11731650_a_at) / Fold change /veh LOC100653217 /// NTM (11731650_a_at) / RFU MAPK11 (11762145_a_at) / Fold change /veh MAPK11 (11762145_a_at) / RFU FIZ1 (11724087_x_at) / Fold change /veh FIZ1 (11724087_x_at) / RFU OASL (11726364_x_at) / Fold change /veh OASL (11726364_x_at) / RFU SOX15 (11748057_x_at) / Fold change /veh SOX15 (11748057_x_at) / RFU CD79A (11719716_a_at) / Fold change /veh CD79A (11719716_a_at) / RFU HIST1H1D (11736915_at) / Fold change /veh HIST1H1D (11736915_at) / RFU CASKIN2 (11723855_a_at) / Fold change /veh CASKIN2 (11723855_a_at) / RFU LOC730098 (11760151_x_at) / Fold change /veh LOC730098 (11760151_x_at) / RFU OR4N2 (11742367_at) / Fold change /veh OR4N2 (11742367_at) / RFU PRRT2 (11749266_a_at) / Fold change /veh PRRT2 (11749266_a_at) / RFU SNX32 (11753110_a_at) / Fold change /veh SNX32 (11753110_a_at) / RFU CDHR5 (11726645_a_at) / Fold change /veh CDHR5 (11726645_a_at) / RFU RCAN1 (11760418_a_at) / Fold change /veh RCAN1 (11760418_a_at) / RFU FAM167A (11723789_a_at) / Fold change /veh FAM167A (11723789_a_at) / RFU FAM26E (11764081_at) / Fold change /veh FAM26E (11764081_at) / RFU ISYNA1 (11749810_s_at) / Fold change /veh ISYNA1 (11749810_s_at) / RFU ACY1 (11761880_at) / Fold change /veh ACY1 (11761880_at) / RFU 11764098_at / Fold change /veh 11764098_at / RFU SAMD14 (11745864_x_at) / Fold change /veh SAMD14 (11745864_x_at) / RFU NPB (11741838_a_at) / Fold change /veh NPB (11741838_a_at) / RFU TMPRSS6 (11731388_a_at) / Fold change /veh TMPRSS6 (11731388_a_at) / RFU KRTAP10-2 (11738614_at) / Fold change /veh KRTAP10-2 (11738614_at) / RFU ARHGAP8 /// PRR5-ARHGAP8 (11727945_x_at) / Fold change /veh ARHGAP8 /// PRR5-ARHGAP8 (11727945_x_at) / RFU KRTAP5-7 /// NADSYN1 (11734609_at) / Fold change /veh KRTAP5-7 /// NADSYN1 (11734609_at) / RFU RASL12 (11751679_a_at) / Fold change /veh RASL12 (11751679_a_at) / RFU CDKN2B (11736163_a_at) / Fold change /veh CDKN2B (11736163_a_at) / RFU PRF1 (11729649_at) / Fold change /veh PRF1 (11729649_at) / RFU, ZNF638 /// ZNF638-IT1 / Fold change vs veh, ZNF638 /// ZNF638-IT1 / RFU, PANK3 / Fold change vs veh, PANK3 / RFU, SH3YL1 / Fold change vs veh, SH3YL1 / RFU, ZEB2 / Fold change vs veh, ZEB2 / RFU, NRIP1 / Fold change vs veh, NRIP1 / RFU, PTTG1IP / Fold change vs veh, PTTG1IP / RFU, CAPN2 / Fold change vs veh, CAPN2 / RFU, MED14 / Fold change vs veh, MED14 / RFU, SNORA58 / Fold change vs veh, SNORA58 / RFU, C1orf63 / Fold change vs veh, C1orf63 / RFU, LRRFIP1 / Fold change vs veh, LRRFIP1 / RFU, NDUFAF7 / Fold change vs veh, NDUFAF7 / RFU, SLC12A2 / Fold change vs veh, SLC12A2 / RFU, IBTK / Fold change vs veh, IBTK / RFU, ESF1 / Fold change vs veh, ESF1 / Fold change vs veh, TMEM50B / RFU, TAOK1 / Fold change vs veh, TAOK1 / RFU, ACBD3 / Fold change vs veh, ACBD3 / RFU, TMA16 / Fold change vs veh, TMA16 / RFU, RWDD3 / Fold change vs veh, RWDD3 / RFU, BCAT1 / Fold change vs veh, BCAT1 / RFU, EDEM3 / Fold change vs veh, EDEM3 / RFU, TMEM33 / Fold change vs veh, TMEM33 / RFU, WDR75 / Fold change vs veh, WDR75 / RFU, AHCTF1 / Fold change vs veh, AHCTF1 / RFU, TFRC / Fold change vs veh, TFRC / RFU, ZDHHC17 / Fold change vs veh, ZDHHC17 / RFU, NOM1 / Fold change vs veh, NOM1 / RFU, ARL8B / Fold change vs veh, ARL8B / RFU, ZBTB11 / Fold change vs veh, ZBTB11 / RFU, TAMM41 / Fold change vs veh, TAMM41 / RFU, KIAA1704 /// LOC100996395 / Fold change vs veh, KIAA1704 /// LOC100996395 / RFU, ING1 / Fold change vs veh, ING1 / RFU, TRMT61B / Fold change vs veh, TRMT61B / RFU, FUBP3 / Fold change vs veh, FUBP3 / RFU, TP53 / Fold change vs veh, TP53 / RFU, TNKS2 / Fold change vs veh, TNKS2 / RFU, ZFP14 / Fold change vs veh, ZFP14 / RFU, ACTR2 / Fold change vs veh, ACTR2 / RFU, PPP3R1 / Fold change vs veh, PPP3R1 / RFU, PIK3R1 / Fold change vs veh, PIK3R1 / RFU, HNRNPA1 / Fold change vs veh, HNRNPA1 / RFU, RNF170 / Fold change vs veh, RNF170 / RFU, ZNF28 / Fold change vs veh, ZNF28 / RFU, RNGTT / Fold change vs veh, RNGTT / RFU, OGT / Fold change vs veh, OGT / RFU, BRD1 / Fold change vs veh, BRD1 / RFU, MARS / Fold change vs veh, MARS / RFU, ZNF655 / Fold change vs veh, ZNF655 / RFU, FAHD1 / Fold change vs veh, FAHD1 / RFU, BDP1 / Fold change vs veh, BDP1 / RFU, LRRCC1 / Fold change vs veh, LRRCC1 / RFU, ARID1A / Fold change vs veh, ARID1A / RFU, ZNF146 / Fold change vs veh, ZNF146 / RFU, ZNF330 / Fold change vs veh, ZNF330 / RFU, GPN3 / Fold change vs veh, GPN3 / RFU, C9orf123 / Fold change vs veh, C9orf123 / RFU, N4BP2L2 / Fold change vs veh, N4BP2L2 / RFU, ARFIP1 / Fold change vs veh, ARFIP1 / RFU, FAM179B / Fold change vs veh, FAM179B / RFU, BCL10 / Fold change vs veh, BCL10 / RFU, UHRF1BP1L / Fold change vs veh, UHRF1BP1L / RFU, BET1 / Fold change vs veh, BET1 / RFU, CNOT2 / Fold change vs veh, CNOT2 / RFU, ZNF268 / Fold change vs veh, ZNF268 / Fold change vs veh, ZNF507 / RFU, DGCR2 / Fold change vs veh, DGCR2 / RFU, WDSUB1 / Fold change vs veh, WDSUB1 / Fold change vs veh, HSP90B1 /// MIR3652 / RFU, ADSS / Fold change vs veh, ADSS / RFU, GK / Fold change vs veh, GK / RFU, ZNF148 / Fold change vs veh, ZNF148 / RFU, TAF9 / Fold change vs veh, TAF9 / RFU, SLC1A5 / Fold change vs veh, SLC1A5 / RFU, SLMO2 / Fold change vs veh, SLMO2 / RFU, ABCC4 / Fold change vs veh, ABCC4 / RFU, LOC101060439 /// RAP1B / Fold change vs veh, LOC101060439 /// RAP1B / RFU, RFX7 / Fold change vs veh, RFX7 / RFU, GTPBP10 / Fold change vs veh, GTPBP10 / RFU, CNEP1R1 / Fold change vs veh, CNEP1R1 / RFU, BIVM-ERCC5 /// ERCC5 / Fold change vs veh, BIVM-ERCC5 /// ERCC5 / RFU, ILF3 / Fold change vs veh, ILF3 / RFU 11762660_at / Fold change /veh 11762660_at / RFU VCAN (11757783_s_at) / Fold change /veh VCAN (11757783_s_at) / RFU DDX43 (11728927_at) / Fold change /veh DDX43 (11728927_at) / RFU KRT8 (11758188_x_at) / Fold change /veh KRT8 (11758188_x_at) / RFU NKD1 (11759106_at) / Fold change /veh NKD1 (11759106_at) / RFU SRD5A1 (11742802_a_at) / Fold change /veh SRD5A1 (11742802_a_at) / RFU TPSAB1 /// TPSB2 (11721975_s_at) / Fold change /veh TPSAB1 /// TPSB2 (11721975_s_at) / RFU GSTM3 (11746129_a_at) / Fold change /veh GSTM3 (11746129_a_at) / RFU IL23R (11737362_x_at) / Fold change /veh IL23R (11737362_x_at) / RFU TMEM51 (11727254_a_at) / Fold change /veh TMEM51 (11727254_a_at) / RFU PIWIL2 (11732686_x_at) / Fold change /veh PIWIL2 (11732686_x_at) / RFU ORM1 (11744905_x_at) / Fold change /veh ORM1 (11744905_x_at) / RFU CCDC152 (11743942_at) / Fold change /veh CCDC152 (11743942_at) / RFU ECM1 (11717891_a_at) / Fold change /veh ECM1 (11717891_a_at) / RFU IL23R (11748794_a_at) / Fold change /veh IL23R (11748794_a_at) / RFU TNFAIP8L3 (11732012_x_at) / Fold change /veh TNFAIP8L3 (11732012_x_at) / RFU MBOAT4 (11741988_at) / Fold change /veh MBOAT4 (11741988_at) / RFU 11764193_at / Fold change /veh 11764193_at / RFU TMEM53 (11763286_at) / Fold change /veh TMEM53 (11763286_at) / RFU MAGEB2 (11727129_at) / Fold change /veh MAGEB2 (11727129_at) / RFU TMEM200A (11744735_a_at) / Fold change /veh TMEM200A (11744735_a_at) / RFU CCDC152 (11751479_a_at) / Fold change /veh CCDC152 (11751479_a_at) / RFU FAM211A (11726209_a_at) / Fold change /veh FAM211A (11726209_a_at) / RFU RGS16 (11746705_a_at) / Fold change /veh RGS16 (11746705_a_at) / RFU VCAN (11755009_s_at) / Fold change /veh VCAN (11755009_s_at) / RFU RHOB (11743442_s_at) / Fold change /veh RHOB (11743442_s_at) / RFU RGS16 (11720943_a_at) / Fold change /veh RGS16 (11720943_a_at) / RFU RGS16 (11720944_at) / Fold change /veh RGS16 (11720944_at) / RFU, VPS4B / Fold change vs veh, VPS4B / RFU, CREB1 / Fold change vs veh, CREB1 / RFU, DNAJC13 / Fold change vs veh, DNAJC13 / RFU, GNAQ / Fold change vs veh, GNAQ / RFU, CDK5R1 / Fold change vs veh, CDK5R1 / RFU, ZRANB3 / Fold change vs veh, ZRANB3 / RFU, CUL4A / Fold change vs veh, CUL4A / RFU, CCNY / Fold change vs veh, CCNY / RFU, UFL1 / Fold change vs veh, UFL1 / RFU, COG3 / Fold change vs veh, COG3 / RFU, DIAPH2 / Fold change vs veh, DIAPH2 / RFU, SKA2 / Fold change vs veh, SKA2 / RFU, AFF3 / Fold change vs veh, AFF3 / RFU, LMF1 / Fold change vs veh, LMF1 / RFU, IPO11 / Fold change vs veh, IPO11 / RFU, DFFB / Fold change vs veh, DFFB / RFU, FOXP1 / Fold change vs veh, FOXP1 / RFU, CARD8 / Fold change vs veh, CARD8 / RFU, STRN3 / Fold change vs veh, STRN3 / RFU, ADK / Fold change vs veh, ADK / RFU, RASSF2 / Fold change vs veh, RASSF2 / RFU, WIPF1 / Fold change vs veh, WIPF1 / RFU, LARP1B / Fold change vs veh, LARP1B / RFU, RASA1 / Fold change vs veh, RASA1 / RFU, RB1 / Fold change vs veh, RB1 / RFU, PPFIA1 / Fold change vs veh, PPFIA1 / RFU, MAT2A / Fold change vs veh, MAT2A / RFU, CCT5 / Fold change vs veh, CCT5 / RFU, WDR92 / Fold change vs veh, WDR92 / RFU, CUX1 / Fold change vs veh, CUX1 / RFU, TTC7A / Fold change vs veh, TTC7A / RFU, TMEM135 / Fold change vs veh, TMEM135 / RFU, DEPTOR / Fold change vs veh, DEPTOR / RFU, CPM / Fold change vs veh, CPM / RFU, DNAJB6 / Fold change vs veh, DNAJB6 / RFU, CACNA2D3 / Fold change vs veh, CACNA2D3 / RFU, DTX4 / Fold change vs veh, DTX4 / RFU, TFCP2 / Fold change vs veh, TFCP2 / RFU, GMCL1 /// GMCL1P1 / Fold change vs veh, GMCL1 /// GMCL1P1 / RFU, AEBP2 / Fold change vs veh, AEBP2 / RFU, SNHG1 /// SNORD22 /// SNORD25 /// SNORD26 /// SNORD27 /// SNORD28 /// SNORD29 /// SNORD31 / Fold change vs veh, SNHG1 /// SNORD22 /// SNORD25 /// SNORD26 /// SNORD27 /// SNORD28 /// SNORD29 /// SNORD31 / Fold change (Aza/veh), C12orf56 (ProbeSet 11735607_a_at) / Fold change (ACY-1035/veh), C12orf56 (ProbeSet 11735607_a_at) / Fold change (Aza/veh), FGFR1OP (ProbeSet 11751329_s_at) / Fold change (ACY-1035/veh), FGFR1OP (ProbeSet 11751329_s_at) / Fold change (Aza/veh), VPS36 (ProbeSet 11739960_a_at) / Fold change (ACY-1035/veh), VPS36 (ProbeSet 11739960_a_at) / RFU SYPL1 (11715823_x_at) / Fold change /veh SYPL1 (11715823_x_at) / RFU IGFBP7 (11715501_s_at) / Fold change /veh IGFBP7 (11715501_s_at) / RFU REEP3 (11722064_at) / Fold change /veh REEP3 (11722064_at) / RFU IGLL1 (11728026_x_at) / Fold change /veh IGLL1 (11728026_x_at): dose or concentration left out as unconfirmed
Conditions: MV-4-11 cells, 48 hours

Nc1ccc(-c2cccs2)cc1NC(=O)c1ccc2c(c1)cc(C1CC1)n2CCN1CCOCC1 [ACY-1035]
Fold change /veh VCAN (11748164_a_at): 1.07
